Article PMC3545186 (Biochemical Pharmacology, 2013)
“And” between values parts separate entries of the source, which are not always exact repeats. Equal entries are not always repeated. Numbered stars: 1 amine (or outer) side, 2 acyl side, 3 side chain; on linkers, the order of the positions; unused ones are H or OH. Bridge positions count the residues as written; N and C are the ends. Square brackets hold non-standard residues; d marks the D form. Peptide text beside a SMILES is read from it. I, II: the chains in the order shown. Actinocin(9to1) = Cc1c2oc3c(C)ccc(C(=O)[*:1])c3nc-2c(C(=O)[*:2])c(N)c1=O; NMeV = CN[C@H](C(=O)O)C(C)C; Sar = CNCC(=O)O

Columns and labels:
MDCKII-WT cells [1] = test: Growth inhibition; type: cell-based, canine
MDCKII-ABCC1 cells [2] = test: Growth inhibition; type: cell-based, canine; conditions: MDCKII-ABCC1, MK571 25 μM
MDCKII-ABCC2 cells [3] = test: Growth inhibition; type: cell-based, canine; conditions: MDCKII-ABCC2, MK571 25 μM, p = 0.23
MDCKII-WT cells [4] = test: Intracellular accumulation of Act D; type: in vitro ADME, canine; conditions: 0.01 μM Act D, 12 h
MDCKII-ABCB1 cells [5] = test: Intracellular accumulation of Act D; type: in vitro ADME, canine
MDCKII-ABCC2 cells [6] = test: Intracellular accumulation of Act D; type: in vitro ADME, canine
MDCKII-ABCG2 cells [7] = test: Intracellular accumulation of Act D; type: in vitro ADME, canine
MDCKII-ABCB1 cells [8] = test: Cellular efflux of Act D after 4 h uptake; type: in vitro ADME, canine; conditions: MDCKII-ABCB1, after 4 h with 0.1 μM Act D
MDCKII-ABCC1 cells [9] = test: Cellular efflux of Act D after 4 h uptake; type: in vitro ADME, canine; conditions: MDCKII-ABCC1, after 4 h with 0.1 μM Act D
MDCKII-ABCC2 cells [10] = test: Cellular efflux of Act D after 4 h uptake; type: in vitro ADME, canine
MDCKII-ABCG2 cells [11] = test: Cellular efflux of Act D after 4 h uptake; type: in vitro ADME, canine; conditions: MDCKII-ABCG2, not statistically significant
MDCKII-WT cells [12] = test: Fluorescence competition assay with ABCB1 substrate doxorubicin; type: cell-based, canine; conditions: 1 h pre-incubation, doxorubicin 10 μM 1 h
in vivo = type: in vivo, mice; conditions: for Cmax / Tmax / half-life: mouse, in vivo, iv
[13] = type: in vivo, mice; conditions: 0.5 mg/kg i.v.
[14] = Abcb1a/1b−/− knockout (parental strain FVB), 0.5 mg/kg
[15] = Abcc2−/− knockout (parental strain FVB), 0.5 mg/kg
[16] = Abcc2−/− mice, 0.5 mg/kg i.v., 0.5 mg/kg
[17] = WT mice, 0.5 mg/kg i.v., 0.5 mg/kg

With `Cc1c2oc3c(C)ccc(C(=O)N[C@@H]4C(=O)N[C@H](C(C)C)C(=O)N5CCC[C@H]5C(=O)N(C)CC(=O)N(C)[C@@H](C(C)C)C(=O)O[C@@H]4C)c3nc-2c(C(=O)N[C@@H]2C(=O)N[C@H](C(C)C)C(=O)N3CCC[C@H]3C(=O)N(C)CC(=O)N(C)[C@@H](C(C)C)C(=O)O[C@@H]2C)c(N)c1=O` [Act D, actinomycin D] (I: T[dV]P[Sar][NMeV] / II: T[dV]P[Sar][NMeV]; ester I:1-I:C, II:1-II:C; linker I:N-II:N via Actinocin(9to1)) the “increase in sensitivity to Act D with MK571” value (MDCKII-WT cells [1]; MK571 25 μM) was 3 fold, the “reduction in GI50 with verapamil” value (MDCKII-WT cells [1]; verapamil 1 μM, 72 h) was 3 fold and the “increase in sensitivity to Act D with MK571” value (MDCKII-ABCC1 cells [2]) was “greater than 4 fold”. The “effect of MK571 on sensitivity to Act D” value (MDCKII-ABCC2 cells [3]) was “no effect”, the “intracellular accumulation of Act D” value (MDCKII-WT cells [4]) was 0.98 nM and the “intracellular accumulation of Act D” value (MDCKII-ABCB1 cells [5]; MDCKII-ABCB1, 0.01 μM Act D, 12 h) was 0.1 nM. For the same compound, the “increase in intracellular Act D with verapamil” value (MDCKII-ABCB1 cells [5]; MDCKII-ABCB1, 10 μM verapamil, 0.1 μM Act D, 4 h) was 7.9 fold, the “lower accumulation of Act D compared to parental cell line” value (MDCKII-ABCB1 cells [5]; MDCKII-ABCB1 vs MDCKII-WT, 0.01 μM Act D, 12 h) was 9.8 fold and the “increased accumulation with MK571 compared to absence of inhibitor” value (MDCKII-ABCC2 cells [6]; MDCKII-ABCC2, not statistically significant) was 1.4 fold. For the same compound, the “lower accumulation of Act D compared to parental cell line” value (MDCKII-ABCC2 cells [6]; MDCKII-ABCC2 vs MDCKII-WT, 12 h) was 3.5 fold, the “Act D accumulation compared to WT cells” value (MDCKII-ABCG2 cells [7]; MDCKII-ABCG2) was “not different to WT cells” and the “effect of co-incubation with KO143 on Act D accumulation” value (MDCKII-ABCG2 cells [7]; MDCKII-ABCG2, data not shown) was “no effect”. The “reduction in intracellular Act D over 2 h after drug removal” value (shortened to “reduction … over 2 h after drug removal”) (MDCKII-ABCB1 cells [8]) was 5.5 fold, the “reduction … over 2 h after drug removal” value (MDCKII-ABCC1 cells [9]) was 1.9 fold and the “reduction … over 2 h after drug removal” value (MDCKII-ABCC2 cells [10]; MDCKII-ABCC2, after 4 h with 0.1 μM Act D) was 2.1 fold. For the same compound, the “reduction in intracellular Act D over 1 h after drug removal” value (MDCKII-ABCC2 cells [10]; MDCKII-ABCC2, compared to parental cell line) was 1.8 fold, the “higher intracellular Act D after 2 h” value (MDCKII-ABCG2 cells [11]) was 1.5 fold and the “Act D concentration at which intracellular doxorubicin levels plateaued” value (MDCKII-WT cells [12]) was 0.1 to 1 µM. For the same compound, the “greater plasma AUC0–∞ in Abcb1a/1b−/− mice compared to WT” value (in vivo; 0.5 mg/kg i.v.) was 1.9 fold, the “higher plasma AUC0–6 h in Abcb1a/1b−/− mice compared to WT” value (in vivo; 0.5 mg/kg i.v.) was 1.6 fold and the “higher plasma Cmax at 15 min in Abcb1a/1b−/− mice compared to WT” value (in vivo; 0.5 mg/kg i.v.) was 1.4 fold. For the same compound, the “higher plasma concentration at 30 min in Abcb1a/1b−/− mice compared to WT” value (in vivo; 0.5 mg/kg i.v.) was 1.7 fold, the “longer elimination half-life (t1/2) in Abcb1a/1b−/− mice compared to WT” value (in vivo; 0.5 mg/kg i.v.) was 1.5 fold and the Cmax (in vivo; [14]) was 96.7 ± 12 ng/mL. For the same compound, the Tmax (in vivo; [14]) was 15 min, the half-life (in vivo; [14]) was 167 min and the “plasma AUC0–∞” value (in vivo; Abcb1a/1b−/− mice, 0.5 mg/kg i.v., 0.5 mg/kg) was 322.6 µg·h/L. The “Act D plasma concentration” value (in vivo; Abcb1a/1b−/− mice, 0.25 h, 0.5 mg/kg i.v.) was 96.7 ± 12.0 µg/L, the “Act D plasma concentration” value (in vivo; Abcb1a/1b−/− mice, 0.5 h, 0.5 mg/kg i.v., 0.5 mg/kg) was 71.6 µg/L and 71.6 ± 12.3 µg/L and the “Act D plasma concentration” value (in vivo; Abcb1a/1b−/− mice, 2 h, 0.5 mg/kg i.v.) was 35.8 ± 2.01 µg/L. The “Act D plasma concentration” value (in vivo; Abcb1a/1b−/− mice, 6 h, 0.5 mg/kg i.v.) was 20.1 ± 0.78 µg/L, the half-life (in vivo; Abcc2−/− knockout (FVB background), 0.5 mg/kg) was 148 min and the Cmax (in vivo; [15]) was 48 ± 11.1 ng/mL. For the same compound, the Tmax (in vivo; [15]) was 15 min, the “plasma AUC0–6 h” value (in vivo; [16]) was 114.8 µg·h/L and the “plasma AUC0–∞” value (in vivo; [16]) was 145.2 µg·h/L. For the same compound, the “Act D plasma concentration” value (in vivo; Abcc2−/− mice, 0.25 h, 0.5 mg/kg i.v.) was 48.0 ± 11.1 µg/L, the “Act D plasma concentration” value (in vivo; Abcc2−/− mice, 0.5 h, 0.5 mg/kg i.v.) was 37.7 ± 6.07 µg/L and the “Act D plasma concentration” value (in vivo; Abcc2−/− mice, 2 h, 0.5 mg/kg i.v.) was 16.3 ± 3.73 µg/L. The “Act D plasma concentration” value (in vivo; Abcc2−/− mice, 6 h, 0.5 mg/kg i.v.) was 8.6 ± 0.96 µg/L, the Cmax (in vivo; FVB (wild type), 0.5 mg/kg) was 68.6 ± 15.6 ng/mL and the Tmax (in vivo; FVB (wild type), 0.5 mg/kg) was 15 min. For the same compound, the half-life (in vivo; FVB (wild type), 0.5 mg/kg) was 115 min, the “plasma AUC0–6 h” value (in vivo; [17]) was 151.5 µg·h/L and the “plasma AUC0–∞” value (in vivo; [17]) was 168.1 µg·h/L. For the same compound, the “Act D plasma concentration” value (in vivo; WT mice, 0.25 h, 0.5 mg/kg i.v.) was 68.6 ± 15.6 µg/L, the “Act D plasma concentration” value (in vivo; WT mice, 0.5 h, 0.5 mg/kg i.v., 0.5 mg/kg) was 43.3 µg/L and 43.3 ± 7.68 µg/L and the “Act D plasma concentration” value (in vivo; WT mice, 2 h, 0.5 mg/kg i.v.) was 25.8 ± 4.78 µg/L. The “Act D plasma concentration” value (in vivo; WT mice, 6 h, 0.5 mg/kg i.v.) was 6.0 ± 0.65 µg/L, the “higher brain AUC0–6 h in Abcb1a/1b−/− mice compared to WT” value [13] was 2.3 fold and the “higher brain AUC0–6 h in Abcc2−/− mice compared to WT” value [13] was 1.3 fold. For the same compound, the “Brain AUC0–6 h (peak area)” value ([13]; Abcb1a/1b−/− mice) was 6802 pa/g h, the “Brain Cmax (peak area)” value ([13]; Abcb1a/1b−/− mice) was 1420 ± 521 pa and the “Kidney AUC0–6 h” value ([13]; Abcb1a/1b−/− mice) was 35,381 μg/L h. The “Kidney AUC0–∞” value ([13]; Abcb1a/1b−/− mice) was 46,701 μg/L h, the “Kidney Cmax” value ([13]; Abcb1a/1b−/− mice) was 13,207 ± 1025 μg/L and the “Liver AUC0–6 h” value ([13]; Abcb1a/1b−/− mice) was 4.616 µg·h/mL. The “Liver AUC0–∞” value ([13]; Abcb1a/1b−/− mice) was 6.594 µg·h/mL.
